Reference: patent publication US20130096332A1, “METHOD FOR INCREASING THE CONTENT OF DOCOSAHEXAENOIC ACID IN FAT-CONTAINING MATERIALS OR IN FATS AND OILS” (NIPPON SUISAN KAISHA, LTD., priority 2007, published 2013)

Assays:
Format in all cases: cell-based
[1] = tested on: strain mh314, microorganism classified into Labyrinthulae; experiment: DHA percentage of fatty acid composition (gas chromatography) after culture with desaturase inhibitor, strain mh314; conditions: GY medium, 28° C., 4 days, inhibitor added to medium (curcumin 1μg/ml), control 13.27
Method: (§1) Thirty three strains of microorganisms which were isolated from mangrove woods or sea water around Ishigaki City, Okinawa Prefecture and classified into Labyrinthulae, were cultured in a GY medium (prepared according to the method as described in “NIPPON SUISAN GAKKAISHI” vol. 68, no. 5, 674-678 (2002); GY medium containing 3% glucose and 1% yeast extract was prepared with 50% artificial sea water and adjusted to pH 6.0; this was used as a liquid medium or a plate medium with 1.5% agar) at 28° C. for 4 days, to which was added 1μg/ml of curcumin (Nacalai Tesque, Inc.) as an inhibitor for a Δ6-fatty acid desaturase. After termination of the culture, the microorganism was collected by centrifugal separation (1500×g, 10 min), and the cells were destroyed by ultra-sonication and extracted by chloroform/methanol (2:1; by v/v) to yield the total lipid. The resulting total lipid was subjected to methanolysis with 10% hydrogen chloride/methanol solution, and the fatty acid composition was analyzed by gas chromatography (Shimadzu Corp.; Model GC-2014). In a control, the same operation as mentioned above was made with no addition of curcumin. […]

[2] = tested on: strain mh295, microorganism classified into Labyrinthulae; experiment: DHA percentage of fatty acid composition (gas chromatography) after culture with desaturase inhibitor, strain mh295; conditions: GY medium, 28° C., 4 days, inhibitor added to medium (curcumin 1μg/ml), control 19.19
Method: as §1

[3] = tested on: microorganism classified into Labyrinthulae; experiment: Content of docosahexaenoic acid in fats and oils produced versus control (summary statements); conditions: culture with inhibitor versus no inhibitor
Method: (§2) Thirty three strains of microorganisms which were isolated from mangrove woods or sea water around Ishigaki City, Okinawa Prefecture and classified into Labyrinthulae, were cultured in a GY medium (prepared according to the method as described in “NIPPON SUISAN GAKKAISHI” vol. 68, no. 5, 674-678 (2002); GY medium containing 3% glucose and 1% yeast extract was prepared with 50% artificial sea water and adjusted to pH 6.0; this was used as a liquid medium or a plate medium with 1.5% agar) at 28° C. for 4 days, to which was added 1μg/ml of curcumin (Nacalai Tesque, Inc.) as an inhibitor for a Δ6-fatty acid desaturase. […] The resulting total lipid was subjected to methanolysis with 10% hydrogen chloride/methanol solution, and the fatty acid composition was analyzed by gas chromatography (Shimadzu Corp.; Model GC-2014). […]
(§3) To the total lipid (about 40 mg) which was extracted from the cells cultured in Examples 1 and 2 was added 0.5mg of nonadecanoic acid (C19:0) as an internal standard substance; then, the fatty acid composition after methanolysis with 10% hydrogen chloride/methanol solution was analyzed by gas chromatography (Shimadzu Corp.; Model GC-2014). From the ratio of the peak area of each fatty acid including DHA to that of C19:0, the amount of each fatty acid was determined.

[4] = tested on: strain mh295, microorganism classified into Labyrinthulae; experiment: Determination of DHA amount with C19:0 internal standard, strain mh295; conditions: from ratio of peak area to C19:0 internal standard, control 0.45
Method: as §2, §3

[5] = tested on: strain mh314, microorganism classified into Labyrinthulae; experiment: Determination of DHA amount with C19:0 internal standard, strain mh314; conditions: from ratio of peak area to C19:0 internal standard, control 0.21
Method: as §2, §3

[6] = tested on: strain mh375, microorganism classified into Labyrinthulae; experiment: DHA percentage of fatty acid composition (gas chromatography) after culture with desaturase inhibitor, strain mh375; conditions: GY medium, 28° C., 4 days, inhibitor added to medium (curcumin 1μg/ml), control 26.02
Method: as §1

[7] = tested on: strain mh313, microorganism classified into Labyrinthulae; experiment: DHA percentage of fatty acid composition (gas chromatography) after culture with desaturase inhibitor, strain mh313; conditions: GY medium, 28° C., 4 days, inhibitor added to medium (curcumin 1μg/ml), control 26.03
Method: as §1

[8] = tested on: strain mh313, microorganism classified into Labyrinthulae; experiment: Determination of DHA amount with C19:0 internal standard, strain mh313; conditions: from ratio of peak area to C19:0 internal standard, control 0.56
Method: as §2, §3

[9] = tested on: strain mh375, microorganism classified into Labyrinthulae; experiment: Determination of DHA amount with C19:0 internal standard, strain mh375; conditions: from ratio of peak area to C19:0 internal standard, control 0.39
Method: as §2, §3

Row | Structure (SMILES) | percentage of the peak area of docosahexaenoic acid [1] [%] | percentage of the peak area of docosahexaenoic acid [2] [%] | content of docosahexaenoic acid in the fats and oils produced, in comparison with that of the control [3] | amount of DHA [4] [g/L] | amount of DHA [5] [g/L] | percentage of the peak area of docosahexaenoic acid [6] [%] | percentage of the peak area of docosahexaenoic acid [7] [%] | amount of DHA [8] [g/L] | amount of DHA [9] [g/L]
1 | COc1cc(/C=C/C(=O)CC(=O)/C=C/c2ccc(O)c(OC)c2)ccc1O [Example 1, curcumin] | 27.23 | 22.32 | significantly increased | 0.67 | 0.66 | 33.77 | 31.05 | 0.71 | 1
2 | c1cc2c(cc1[C@H]1OC[C@H]3[C@@H]1CO[C@@H]3c1ccc3c(c1)OCO3)OCO2 [Example 2, sesamin] | 22.31 | 21.47 | significantly increased | 0.98 | 0.82 | 29.96 | 42.32 | 1.45 | 0.64
